Test results published in patent US5691311A (Biogen, Inc., priority 1995, dated 1997).
pKd: −log10 of the molar value. Read-outs that look alike come from different tables or passages of the source.

Legend:
hemostasis = assay: Template bleeding time; type: in vivo, baboon
[1] = test system: platelet-dependent thrombus formation; assay: High and low shear platelet-dependent thrombus formation, dual-chamber device; type: in vivo, baboon; conditions: 0.05 mg/kg/min, 40 minutes
Text: The device was comprised of a 2 cm segment of collagen-coated Gortex followed by 2 cm segments of expanded diameter. Using this device, thrombus formation was initiated by exposure of native flowing blood to a segment of the collagen-coated Gortex at high shear. This part of the experimental protocol simulated arterial-like conditions. When the blood entered the expanded diameter segments, low-shear, vortex conditions were maintained, thereby simulating venous thrombosis. In control animals, a total of 9.3±2.3×10^8 and 6.1±0.5×10^8 platelets/cm accumulated after 40 minutes in the high and low shear segments, respectively.

HUVECs = assay: Thrombin-induced polymorphonuclear leukocyte (PMN) adhesion to HUVECs; type: cell-based, human; conditions: 5 μg/ml, α-thrombin 0.1 or 1 U/ml
Protocol: HUVECs are grown to confluence in MEM containing 1% fetal calf serum in 24-well cluster plates. The medium is then removed, the cells are washed two times with fresh, serum-free medium and incubated in the same medium for 10-30 minutes at 37° C. to remove serum products. PMNs (2.5×10^6 in 1 ml), which are pre-equilibrated at 37° C., are then added to each well. The PMNs are allowed to settle onto the HUVEC monolayer for 2 minutes. […] The cells are incubated for 5 minutes at 37° C., washed twice and then examined by phase-contrast microscopy. Adherent PMNs are counted directly.

[2] = Clearance times monitored by APTT; type: in vivo, baboon
Protocol: APTT assays, performed as described in Example 11, were used to monitor clearance times.
APTT was measured following the 60 minute infusion and at various time intervals thereafter.
APTT measurements were taken at various time intervals following injection.

[3] = test system: human umbilical vein endothelial cells (HUVECs); assay: Thrombin-induced synthesis of platelet activating factor (PAF); type: cell-based; conditions: 0-1 μg/ml, thrombin 1 U/ml
Protocol: The ability of the thrombin inhibitors of this invention to prevent thrombin-induced synthesis of platelet activating factor (PAF) is assayed using cultured human umbilical vein endothelial cells (HUVECs). HUVECS are extracted from human umbilical cords by collagenase digestion according to established procedures [M. A. Gimborne, Jr., "Culture of Vascular Endothelium", Prog. Hemost. Thromb., 3, pp. 1-28 (1976)]. HUVECs are grown to confluence in a 96-well microtiter plate in the presence of [^3 H]-acetate. Cells cultured in this manner produce [^3 H]-acetyl-PAF, which may be quantitated by extraction of HUVEC membrane phospholipids.
Cells are incubated for 5 minutes and the supernatant is then removed. Medium containing 0.1% gelatin, 50 mM acetic acid in methanol (2:1 v/v) is then added to the HUVECs. PAF is then extracted and quantified using conventional techniques [T. M. Mcintyre et al., "Cultured Endothelial Cells Synthesize Both Platelet-Activating Factor and Prostacyclin in Response to Histamine, Bradykinin and Adenosine Triphosphate", J. Clin. Invest., 76, pp. 271-80 (1985)]. The IC50 values are then calculated.

fibrin(ogen) deposition = assay: Fibrin(ogen) deposition in AV shunt thrombi; type: in vivo, baboon; conditions: collagen-coated tubing, 60 minute exposure
Protocol: Fibrin deposition was determined by measurement of ^125 I-fibrin(ogen) 30 days after completion of the ^111 In-platelet assay described above. This allowed the ^111 In label to decay to a non-interfering level.

APTT [4] = assay: Systemic anticoagulant effect (APTT) of antithrombotic agents; type: in vivo, baboon; conditions: dose not given
Text: We also tested the effects of a variety of other agents on template bleeding time in the baboon, as well as on systemic anticoagulant effects (as measured by APTT).

[5] = test system: platelet-dependent thrombosis; assay: Platelet deposition on thrombogenic surfaces in exteriorized AV shunt; type: in vivo, baboon
Protocol: Specifically, we placed various thrombogenic surfaces in a chronic exteriorized AV shunt in the animals. These surfaces included segments of endarterectomized baboon aorta, collagen-coated silastic tubing, collagen-coated Gortex and Dacron vascular graft. Following placement in the shunt, the surfaces were exposed to native flowing blood to elicit thrombus formation. We measured the formation of thrombi over a period of 60 minutes by monitoring the deposition of platelets on the thrombogenic surface. These measurements were recorded by external gamma-camera imaging following pre-infusion of the test animal with autologous ^111 In-labeled platelets.

[6] = test system: pooled, normal human plasma; assay: Activated partial thromboplastin time (APTT) assay in plasma; type: biochemical; conditions: 10 to 32,300 ng/ml
Text: Hirulog-8 using pooled, normal human plasma (George King Biomedical, Overland Park, Kans.) and a Coag-A-Mate XC instrument (General Diagnostics, Organon Technica, Oklahoma City, Okla.). Activity was monitored using the activated partial thromboplastin time (APTT) assay with CaCl2 and phospholipid solutions obtained from the manufacturer.

[7] = test system: E. coli-induced septic shock; assay: E. coli-induced septicemia / disseminated intravascular coagulation; type: in vivo, baboon; conditions: 0.08 mg/kg/hr infusion
Text: We induced septicemia in baboons by injection of a lethal dose of live E. coli according to the method described by F. B. Taylor et al. J. Clin. Invest., 79, pp. 918-25 (1987).

[8] = test system: thrombin-induced platelet activation; assay: Thrombin-induced platelet activation in platelet-rich plasma; type: cell-based, human; conditions: 0-500 ng/ml, thrombin 0.2, 0.25 or 0.5 units/ml
Protocol: Thrombin-induced platelet activation studies are performed at 37° C. using a Biodata PAP4 Platelet Aggregometer. Platelet-rich plasma (PRP) is obtained from normal, healthy, volunteers who have not taken any medication altering platelet function for at least one week prior to study. PRP is prepared as described by J. A. Jakubowski et al., "Modification of Human Platelet by a Diet Enriched in Saturated or Polyunsaturated Fat", Atherosclerosis, 31, pp. 335-44 (1978). […] One minute later, we add human α-thrombin to the platelet suspension to a final concentration of 0.2, 0.25 or 0.5 units/ml total assay volume. Aggregation is monitored as an increase in light transmission for 5 minutes following the addition of thrombin. We then calculate % Inhibition as (% aggregationsample)/(% aggregationcontrol)×100.

APTT [9] = assay: In vivo anticoagulant activity, APTT after intravenous infusion; design: species or system baboon
Protocol: Whole blood from treated and control animals was removed from a catheter placed in the femoral vein and collected into 3.8% sodium citrate (9:1; blood:sodium citrate). Plasma was obtained by standard methods and the APTT was recorded by methods described in Example 10.

sarcoma T241 cells = assay: Anti-metastatic activity, lung tumor colonies; type: in vivo, C57BL/6 mice; conditions: i.v. or s.c., 15 days
Text: After 15 days, the animal is sacrificed and lung tumor colonies are quantitated.

human α-thrombin = human α-thrombin in 20 mM Tris-HCl pH 7.4 containing 0.1M NaCl
clot-bound thrombin = clot-bound thrombin (Homo sapiens, UniProt P00734); assay: Fibrinopeptide A (FPA) release by clot-bound thrombin; type: biochemical; conditions: similar dose (0.1 U/ml)
[10] = test system: platelet-dependent thrombosis; conditions: collagen-coated silastic tubing, 160 U/kg bolus then 160 U/kg/hr infusion; cited from earlier work
soluble thrombin = target: T1, soluble thrombin (Homo sapiens, UniProt P00734); assay: Fibrinopeptide A (FPA) release by soluble thrombin; type: biochemical; conditions: 0.1 U/ml
T1 construct: We added a 270-fold excess of ^14 C-DFP to thrombin

thrombin = thrombin (Homo sapiens, UniProt P00734); conditions: cited from earlier work

In the case of `CC[C@H](C)[C@H](NC(=O)[C@H](CCC(=O)O)NC(=O)[C@H](CCC(=O)O)NC(=O)[C@H](Cc1ccccc1)NC(=O)[C@H](CC(=O)O)NC(=O)CNC(=O)[C@H](CC(N)=O)NC(=O)CNC(=O)CNC(=O)CNC(=O)CNC(=O)[C@@H]1CCCN1C(=O)[C@H](CCCNC(=N)N)NC(=O)[C@@H]1CCCN1C(=O)[C@H](N)Cc1ccccc1)C(=O)N1CCC[C@H]1C(=O)N[C@@H](CCC(=O)O)C(=O)N[C@@H](CCC(=O)O)C(=O)N[C@@H](Cc1ccc(O)cc1)C(=O)N[C@@H](CC(C)C)C(=O)O` [Hirulog-8], the “increase in bleeding time over control values” (hemostasis; 0.1 mg/kg/min) was “two-fold”, the bleeding times (hemostasis; 0.2 mg/kg/min) was 3 times control values and the bleeding times (hemostasis; 0.002 to 0.04 mg/kg/min) was “no significant increase in bleeding times”. For the same molecule, the “Bleeding Time” value (hemostasis; dose not given) was 5.5 min, the “inhibition of platelet accumulation” value ([1]; high shear) was 29.0% and the “inhibition of platelet accumulation” value ([1]; low shear) was 42.6%. The “adherent PMNs versus saline” value (HUVECs) was “significantly fewer adherent PMNs”, the half-life ([2]; 1 mg/kg i.v. bolus) was 14 min and the “peak APTT” value ([2]; 1 mg/kg i.v. bolus, 2 minutes after injection) was 570 % of control. The “absorption after subcutaneous administration” value ([2]; 1 mg/kg subcutaneous) was “quantitatively adsorbed”, the clearance half-time ([2]; 1 mg/kg subcutaneous) was 340 min and the APTT ([2]; 1 mg/kg subcutaneous, 15 minutes) was “approximately 200 % of control”. The “average half-time for clearance” value ([2]; after 60 minute i.v. infusion, 0.002-0.2 mg/kg/min) was 9.2 ± 3.3 min, the “synthesis of PAF by HUVECs” value [3] was “inhibits the synthesis of PAF” and the “fibrin(ogen) deposition” value (fibrin(ogen) deposition; 0.01 mg/kg/min) was “completely inhibited fibrin(ogen) deposition”. The “fibrin(ogen) deposition” value (fibrin(ogen) deposition; 0.04 mg/kg/min) was “completely inhibited fibrin(ogen) deposition”, the “APTT (% control)” value (APTT [4]) was 300.6 % control and the ED50 ([5]; collagen-coated Gortex) was 0.135 mg/kg/min. For the same molecule, the “inhibition of platelet deposition” value ([5]; collagen-coated Gortex, 0.2 mg/kg/min) was 62.9%, the ED50 ([5]; collagen-coated silastic tubing) was 0.004 mg/kg/min and the “inhibition of platelet-dependent thrombus formation compared to control” value ([5]; collagen-coated silastic tubing, 5 nmole/kg/min) was 60-70%. For the same molecule, the “inhibition of platelet deposition” value ([5]; collagen-coated silastic tubing, 0.04 mg/kg/min) was “completely inhibited platelet deposition”, the ED50 ([5]; collagen-coated surfaces, applicants' determinations) was less than 5 nmol/kg/min and the “ED50 (dosage required to reduce platelet deposition by 50%)” value ([5]; endarterectomized baboon aorta) was 0.002 mg/kg/min. For the same molecule, the “inhibition of platelet deposition” value ([5]; endarterectomized baboon aorta, 0.002 mg/kg/min, 60 minutes) was 53.6%, the “inhibition of platelet deposition” value ([5]; endarterectomized baboon aorta, 0.01 mg/kg/min, 60 minutes) was 75.5% and the “maximal increase of APTT of plasma” value [6] was “too high to be measured”. For the same molecule, the hematocrit drop [7] was “completely attenuated hematocrit drop”, the “intravascular thrombosis at autopsy” value [7] was “only the control group displayed intravascular thrombosis” and the “morbidity after lethal infusion of E. coli” value [7] was “still resulted in morbidity”. For the same molecule, the “peak drop in blood pressure” value [7] was 60 % of baseline, the thrombin-induced platelet activation [8] was “blocks thrombin-induced platelet activation” and the “increase in the APTT” value (APTT [9]; 0.002 mg/kg/min infusion) was 200 % increase. For the same molecule, the “APTT response to dose” value (APTT [9]; 0.002 to 0.2 mg/kg/min i.v.) was “dose-dependent increase in the APTT” and the “anti-metastatic activity (reduction in lung tumor colonies)” value (sarcoma T241 cells) was “demonstrates anti-metastatic activity”.
For “H-(D-Phe)-Pro-(β-homoarginine)-Val-(Gly)4 -Asn-Gly-Asp-Phe-Glu-Glu-Ile-Pro-Glu-Glu-Tyr-Leu-OH”, the not cleaved (human α-thrombin) was “kcat <0.01 min^-1; resistant to thrombin cleavage”.
In the case of Heparin, the “Bleeding Time” value (hemostasis; in vivo) is listed as 10 min, the “effect on FPA release catalyzed by clot-bound thrombin” value (clot-bound thrombin) is listed as “no effect” and the “platelet deposition level relative to saline-treated control” value [10] is listed as “about 80%”. For the same molecule, the “inhibition of FPA release catalyzed by soluble thrombin” value (soluble thrombin) was “approximately 70%” and the “APTT (% control)” value (APTT [4]) was 706.1 % control.
For hirudin, the pKd (thrombin; 1:1 stoichiometric complex, read-out: Kd of hirudin binding to thrombin) is listed as 10.70, the pKd (thrombin; site separate from the catalytic site (anion-binding exosite), read-out: Kd of hirudin for the low affinity site on thrombin) is listed as 8.00 and the “maximal increase of APTT of plasma” value [6] is listed as “too high to be measured”.
